Assay [1] deals with TNF-α (TNF-alpha) production in Human Whole Blood. In words: Inhibition of TNF-α production in Human Whole Blood. The assay is classed as cell-based. The settings on record: LPS-stimulated, n=6, read-out: Inhibition of TNF-α production in Human Whole Blood pIC50 (converted). As for the experimental part:
This is an optional supplementary test, e.g. for potentially orally-administrable PDE4 inhibitors. Also, as the assay measures the effect of PDE4 inhibitors after loss by protein binding, it might also be relevant to externally-topically-administrable PDE4 inhibitors as protein-binding-loss of compound is possible during transport through the skin.
Test compounds are prepared as a ca. 10 mM stock solution in DMSO and a dilution series prepared in DMSO with 8 successive 3-fold dilutions, either directly from the 10 mM stock solution or from a more dilute solution in DMSO. The compound is added to assay plates using a Biomek Fx liquid handling robot.
Heparinised blood drawn from normal volunteers is dispensed (ca. 100 μl=ca. 100 ul) into microtitre plate wells containing ca. 0.5 or ca. 1.0 μl (ul, microliters) of an appropriately diluted test compound solution. […] Plasma TNFα content is determined by electrochemiluminescence assay using the IGEN technology (see below) or by enzyme linked immunosorbant assay (ELISA) (see below).
Ca. […] 50 μl (ul) of streptavidin/biotinylated anti-TNF-α antibody mix, ca. 25 μl ruthenium tagged anti-TNF-α monoclonal and ca. 100 μl PBS containing 0.1% bovine serum albumin are added to each well and the plates are sealed and shaken for ca. 2 hours before being read on an IGEN instrument. […]

Another assay deals with PDE5 (human recombinant) (Homo sapiens, UniProt O76074). In words: PDE5 inhibition (SPA or modified FP assay). The conditions noted are these: n = 1; accuracy ±about 0.5 log unit; read-out: PDE5 pIC50 (converted). The assay is classed as biochemical. The source says: Human recombinant PDE5 is disclosed in K. Loughney et al., “Isolation and characterisation of cDNAs encoding PDE5A, a human cGMP-binding, cGMP-specific 3′,5′-cyclic nucleotide phosphodiesterase”, Gene, 1998, 216, 139-147.
The ability of compounds to inhibit catalytic activity at PDE4B or 4D (human recombinant), PDE3 (from bovine aorta), PDE5 (human recombinant) or PDE6 (from bovine retina) can optionally be determined by Scintillation Proximity Assay (SPA) in a 96-well format.
Test compounds (as a solution in DMSO, preferably about 2 microliters (ul) volume of DMSO solution) are preincubated at ambient temperature (room temperature, e.g. 19-23° C.) in Wallac Isoplates (code 1450-514) with PDE enzyme in 50 mM Tris-HCl buffer pH 7.5, 8.3 mM MgCl2, 1.7 mM EGTA, 0.05% (w/v) bovine serum albumin for 10-30 minutes (usually 30 minutes). The enzyme concentration is adjusted so that no more than 20% hydrolysis of the substrate defined below occurs in control wells without compound, during the incubation. […] Bound radioactive product is measured using a WALLAC TRILUX 1450 Microbeta scintillation counter. […] Curves are analysed using ActivityBase and XLfit (ID Business Solutions Limited, 2 Ocean Court, Surrey Research Park, Guildford, Surrey GU2 7QB, United Kingdom) Results are expressed as pIC50 values. […]

Take `CCn1ncc2c(NC3CCN(C(N)=O)CC3)c(C(=O)NCc3ccc(C)c(C)c3)cnc21` [compound of formula (I), 4-{[1-(aminocarbonyl)-4-piperidinyl]amino}-N-[(3,4-dimethylphenyl)methyl]-1-ethyl-1H-pyrazolo[3,4-b]pyridine-5-carboxamide]: the IC50 in assay [1] was 7.41 nM; on PDE5 (human recombinant), 490 nM.
